Experimental data as given in the NIST ThermoML archive (doi:10.1021/je050195w).
Numbers after ± are expanded uncertainties.

Conditions: Crystal; DTA

- Normal melting temperature: 205.50 ± 1.1 °C
SMILES: CC(=O)[C@@]12O[C@@H]1C[C@H]1[C@@H]3CCC4=CC(=O)CC[C@]4(C)[C@H]3CC[C@@]12C [16α,17-epoxypregn-4-ene-3,20-dione]
